Experimental data published in patent US10821079B2, “PKC activators and combinations thereof” (Cognitive Research Enterprises, Inc., priority 2011, dated 2020).

Key:
[1] = system: PKC-ε; test: PKC-ε translocation to membrane in SH-SY5Y cells (Western blot); format: cell-based, human
Description: Cells were harvested in homogenizing buffer containing 10 mM Tris-Cl (pH 7.4), 1 mM PMSF (phenylmethylsulfonyl fluoride), 1 mM EGTA, 1 mM EDTA, 50 mM NaF, and 20 μM leupeptin and were lysed by sonication. The homogenate was centrifuged at 100,000×g for 15 min at 4° C. to obtain the cytosolic fraction (supernatant) and membrane (pellet). The pellet was resuspended in the homogenizing buffer by sonication. Protein concentration was measured using the Coomassie Plus (Bradford) Protein Assay kit (Pierce, USA). Following quantification, 20 μg of protein from each sample was subjected to SDS-PAGE analysis in 4-20% gradient Tris-Glycine gel (Invitrogen, USA). The separated protein was then transferred to nitrocellulose membrane. The membrane was blocked with BSA at room temperature for 15 min and was incubated with primary antibody over night at 4° C. After the incubation, it was washed three times with TBS-T (Tris Buffered saline-Tween 20) and further incubated with alkaline phosphatase conjugated secondary antibody (Jackson Immunoresearch Laboratories, USA) at 1:10,000 dilution for 45 min. The membrane was finally washed three times with TBS-T and developed using the 1-step NBT-BCIP substrate (Pierce, USA). Western Blot was imaged in the ImageQuant RT-ECL (GE Life Sciences, Piscataway, N.J.) and densitometric quantification was performed using the IMAL software (Blanchette Rockefeller Neurosciences Institute, Morgantown, W. Va.). For translocation assays, PKC activation was represented as the percentage of total protein in the membrane (membrane/cytosol+membrane).
Equal amounts of proteins were loaded in each lane (20 μg) for both the cytosol and membrane fractions. Activation of PKC was calculated as the percentage of total PKC in the membrane (membrane/cytosol+membrane).

[2] = target: PKCα (Homo sapiens, UniProt P17252); test: Activation of purified PKC isozymes, radiometric: PKC-α; format: biochemical
Description: To measure PKC activity, 10 μg of protein from either cytosol or membrane was incubated for 15 min at 37° C. in the presence of 10 μM histones, 4.89 mM CaCl2, 1.2 μg/μl phosphatidyl-L-serine, 0.18 μg/μl 1,2-dioctanoyl-sn-glycerol, 10 mM MgCl2, 20 mM HEPES (pH 7.4), 0.8 mM EDTA, 4 mM EGTA, 4% glycerol, 8 μg/ml aprotinin, 8 μg/ml leupeptin, 2 mM benzamidine, and 0.5 μCi of [γ-^32P]ATP. [^32P]Phosphoprotein formation was measured by adsorption onto phosphocellulose as described previously. See Nelson et al. (2009) J Biol Chem 284, 34514-34521. For measurements of activation by RA, PKC activity was measured in the absence of diacylglycerol (DAG) and phosphatidylserine, as described by Nelson et al. (2009) J Biol Chem 284, 34514-34521. PKC-δ and PKC-ε were measured in the absence of added EGTA and CaCl^2, as described by Kanno et al. (2006) J Lipid Res 47, 1146-1156. The enzyme was provided as a purified isozyme for in vitro experiments.
(§1) To measure PKC, 10 μl of cell homogenate or purified PKC isoform was incubated for 15 min at 37° C. in the presence of 10 μM histones, 4.89 mM CaCl2, 1.2 μg/μl phosphatidyl-L-serine, 0.18 μg/μl 1,2-dioctanoyl-sn-glycerol, 10 mM MgCl2, 20 mM HEPES (pH 7.4), 0.8 mM EDTA, 4 mM EGTA, 4% glycerol, 8 μg/ml aprotinin, 8 μg/ml leupeptin, and 2 mM benzamidine. [γ32P]ATP (0.5 μCi) was added and 32P-phosphoprotein formation was measured by adsorption onto phosphocellulose as described previously. See Nelson et al., J. Neurochemistry, 1995, 65: 2350-2357.
(§2) PKC activity of each compound was measured in the absence of diacylglycerol and phosphatidylserine and PKC-δ and PKC-ε were measured in the absence of added EGTA and CaCl2, as described by Kanno et al., J. Lipid Res., 2006, 47: 1146-1156. Low concentrations of Ca^2+ were needed because high Ca^2+ can interact with the PKC phosphatidylserine binding site and prevents activation. […] To determine their PKC isoform specificity, the compounds were pre-incubated with purified isoforms of PKC for five minutes and the PKC activity was measured radiometrically.
(§3) The activation and PKC isozyme specificity of DCPLA-ethyl ester was measured following the procedures in Example 1(B) and (C), except that 9 ng of the purified isozyme was used and it was pre-incubated for 5 minutes at room temperature (FIG. 3). PKC-ε activation by DCPLA-tert-butyl ester and DCPLA-retinyl ester was measured in the same manner as DCPLA-ethyl ester (FIG. 3).

[3] = target: T1, PKC-ε (Homo sapiens, UniProt Q02156); test: Activation of purified PKC isozymes, radiometric: PKC-ε; format: biochemical
T1 sequence (Q02156 1-737): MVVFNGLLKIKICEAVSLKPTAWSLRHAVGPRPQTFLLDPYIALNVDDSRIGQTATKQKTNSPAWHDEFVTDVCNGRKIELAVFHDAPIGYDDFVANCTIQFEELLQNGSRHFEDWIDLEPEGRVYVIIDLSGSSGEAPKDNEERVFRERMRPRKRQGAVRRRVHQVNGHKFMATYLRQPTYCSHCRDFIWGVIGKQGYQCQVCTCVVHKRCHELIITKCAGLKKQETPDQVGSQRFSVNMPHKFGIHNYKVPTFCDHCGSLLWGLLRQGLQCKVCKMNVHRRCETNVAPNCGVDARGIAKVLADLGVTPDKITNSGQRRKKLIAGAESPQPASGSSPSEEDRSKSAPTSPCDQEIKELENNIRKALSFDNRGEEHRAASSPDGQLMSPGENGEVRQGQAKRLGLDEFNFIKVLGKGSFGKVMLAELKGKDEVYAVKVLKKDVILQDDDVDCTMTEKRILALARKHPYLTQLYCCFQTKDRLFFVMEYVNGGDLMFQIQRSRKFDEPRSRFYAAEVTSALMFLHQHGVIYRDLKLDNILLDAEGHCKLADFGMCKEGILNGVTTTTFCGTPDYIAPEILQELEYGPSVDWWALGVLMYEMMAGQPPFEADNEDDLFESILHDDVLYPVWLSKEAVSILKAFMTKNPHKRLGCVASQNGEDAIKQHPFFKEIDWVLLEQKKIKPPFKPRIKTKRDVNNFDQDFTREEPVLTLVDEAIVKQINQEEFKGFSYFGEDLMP
Description: as §1, §2, §3
The EC50 values, PKC specificity, and activation for a select number of DCPLA esters was determined (see Table 1). EC50 values were determined by measuring the lowest concentration that activates by 50% of maximum activation. […] The specificity and activation of PKC by the various esters of DCPLA were calculated from the measurements of activation of PKC isozymes.

SMILES	PKC-ε translocation over time (in words) ([1]; 0.27 nM, 0-60 min)	effect on PKC-α (in words) [2]	PKC-ε translocation (in words) ([1]; Aβ1-42 monomers 1 μM, DCPLA-ME added to ASPD-treated cells)	PKC-ε activation at peak [3]	concentration range activating PKC-ε by more than 50% [3]	Specificity ε/α ([3]; Activation of PKC-ε ÷ activation or inhibition of PKCα at 3 × EC50)	PKC-ε activation (in words) [3]
CCC/C=C/C=C/C(=O)O[C@H]1/C(=C/C(=O)OC)C[C@H]2C[C@H]([C@@H](C)O)OC(=O)C[C@H](O)C[C@@H]3C[C@H](OC(C)=O)C(C)(C)C(O)(C[C@@H]4C/C(=C/C(=O)OC)C[C@H](/C=C/C(C)(C)[C@]1(O)O2)O4)O3 [Bryostatin-1]	remained activated at 60 min						
CCCCCC1CC1CC1CC1CCCCCCCC(=O)OC (centres unmarked) [DCPLA-ME, methyl 8-(2-((2-pentylcyclopropyl)methyl)cyclopropyl)octanoate]		did not have a major effect	restored PKC-ε translocation to normal	up to 190 % of control	0.01 to 10 µM	12.1	
CC1=C(/C=C/C(C)=C/C=C/C(C)=C/C(=O)O)C(C)(C)CCC1 [RA, All-trans retinoic acid]		not activated					not activated
